Several values for one entry are separate records, joined by “and”; a condition that tells them apart may be missing. Equal values may be shown once. Inconclusive results and toxic doses are left out.

In this experiment the test system is L1210 leukemia ip in BDF1 mice, survival T/C. Nature of the experiment: NCI In Vivo Anticancer Drug Screen. Data for tumor model L1210 Leukemia (intraperitoneal) in B6D2F1 (BDF1) mice. As to conditions: endpoint: mean survival time, higher = longer survival. In short, it runs like this: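 Each compound was tested against a transplantable tumor grown in mice. The endpoint was survival, with treated animals benchmarked against vehicle controls as a simple ratio.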

Where [1] appears, read: dose: 25.0 mg/kg/injection, schedule: Q01DX009 (ip), vehicle: Klucel (hydroxypropylcellulose) (HPC).
The mark [2] stands for this setting: dose: 50.0 mg/kg/injection, schedule: Q01DX009 (ip), vehicle: Klucel (hydroxypropylcellulose) (HPC).
The mark [3] stands for this setting: dose: 100.0 mg/kg/injection, schedule: Q01DX009 (ip), vehicle: Klucel (hydroxypropylcellulose) (HPC).
[4] abbreviates: dose: 100.0 mg/kg/injection, schedule: Q01DX001 (ip), vehicle: carboxymethylcellulose (CMC).
[5] abbreviates: dose: 200.0 mg/kg/injection, schedule: Q01DX001 (ip), vehicle: carboxymethylcellulose (CMC).
The mark [6] stands for this setting: dose: 400.0 mg/kg/injection, schedule: Q01DX001 (ip), vehicle: carboxymethylcellulose (CMC).

With `CC1CCCCN1Cc1ccccc1COC(=O)c1ccc([N+](=O)[O-])cc1` (stereo not given), the T/C is 90 % of control (dose: 100.0 mg/kg/injection, schedule: Q04DX002 (ip), vehicle: Klucel (hydroxypropylcellulose) (HPC)); 104 % of control (dose: 200.0 mg/kg/injection, schedule: Q04DX002 (ip), vehicle: Klucel (hydroxypropylcellulose) (HPC)); 114 % of control (dose: 400.0 mg/kg/injection, schedule: Q04DX002 (ip), vehicle: Klucel (hydroxypropylcellulose) (HPC)).

As for `O=C(Nc1ccccc1)Oc1c(Cl)cc(Cl)c(Cl)c1[N+](=O)[O-]`, the T/C under setting [1] was 100 % of control, the T/C under setting [2] was 93 % of control and the T/C under setting [3] is 91 % of control.

`COc1ccc2c(c1)CCC1C2CCC2(C)C(=O)OC(=O)C12` (stereo not given): the T/C is, setting by setting: (dose: 100.0 mg/kg/injection, schedule: Q01DX009 (sc), vehicle: steriod suspending solution) 109 % of control; (dose: 200.0 mg/kg/injection, schedule: Q01DX009 (sc), vehicle: steriod suspending solution) 98 % of control; (dose: 400.0 mg/kg/injection, schedule: Q01DX009 (sc), vehicle: steriod suspending solution) 103 % of control.

With `CCCCC(CC)COP(=O)(CC(CC)CCCC)OCC(CC)CCCC` (stereo not given), the T/C by setting is: (dose: 50.0 mg/kg/injection, schedule: Q01DX009 (ip), vehicle: saline) 111 % of control; (dose: 100.0 mg/kg/injection, schedule: Q01DX009 (ip), vehicle: saline) 107 % of control.

On to `CC1(C)Oc2c(ccc(O)c2CN2CCCC2)C2=C1CCCC2`, for which the T/C runs as follows: (dose: 100.0 mg/kg/injection, schedule: Q01DX001 (ip), vehicle: saline) 95 % of control; (dose: 200.0 mg/kg/injection, schedule: Q01DX001 (ip), vehicle: saline) 95 % of control; (dose: 400.0 mg/kg/injection, schedule: Q01DX001 (ip), vehicle: saline) 95 % of control.

In the case of `CCCCCCCCCCCCCCCCCC(=O)NCCNC(=O)CCCCCCCCCCCCCCCCC`, the T/C was 103 % of control (dose: 12.5 mg/kg/injection, schedule: Q04DX003 (ip), vehicle: Klucel (hydroxypropylcellulose) (HPC)); 108 % of control under setting [1]; 107 % of control (dose: 25.0 mg/kg/injection, schedule: Q04DX003 (ip), vehicle: Klucel (hydroxypropylcellulose) (HPC)); 104 % of control under setting [2]; 104 % of control (dose: 50.0 mg/kg/injection, schedule: Q04DX003 (ip), vehicle: Klucel (hydroxypropylcellulose) (HPC)); 104 % of control under setting [3]. For the same compound, the T/C was 90 % of control (dose: 100.0 mg/kg/injection, schedule: Q04DX003 (ip), vehicle: Klucel (hydroxypropylcellulose) (HPC)); 88 % of control (dose: 150.0 mg/kg/injection, schedule: Q01DX009 (ip), vehicle: Klucel (hydroxypropylcellulose) (HPC)); 96 % of control (dose: 200.0 mg/kg/injection, schedule: Q04DX003 (ip), vehicle: Klucel (hydroxypropylcellulose) (HPC)).

Consider `CC(=O)NC(CCC(=O)C=[N+]=N)C(=O)O` (stereo not given), for which the T/C runs as follows: (dose: 0.1 mg/kg/injection, schedule: Q01DX009 (ip), vehicle: other) 98 % of control and 100 % of control and 101 % of control; (dose: 0.2 mg/kg/injection, schedule: Q01DX009 (ip), vehicle: other) 105 % of control and 116 % of control (2×); (dose: 0.2 mg/kg/injection, schedule: Q01DX015 (ip), vehicle: saline) 108 % of control; (dose: 0.4 mg/kg/injection, schedule: Q01DX001 (ip), vehicle: saline) 106 % of control; (dose: 0.4 mg/kg/injection, schedule: Q01DX009 (ip), vehicle: other) 100 % of control; (dose: 0.4 mg/kg/injection, schedule: Q01DX015 (ip), vehicle: saline) 120 % of control. Also, the T/C runs as follows: (dose: 0.5 mg/kg/injection, schedule: Q01DX001 (ip), vehicle: other) 109 % of control; (dose: 0.5 mg/kg/injection, schedule: Q01DX001 (ip), vehicle: saline) 113 % of control; (dose: 0.5 mg/kg/injection, schedule: Q04DX003 (ip), vehicle: other) 113 % of control; (dose: 0.5 mg/kg/injection, schedule: Q08DX002 (ip), vehicle: other) 106 % of control; (dose: 0.6 mg/kg/injection, schedule: Q01DX001 (ip), vehicle: saline) 110 % of control; (dose: 0.6 mg/kg/injection, schedule: Q01DX015 (ip), vehicle: saline) 123 % of control. The T/C is, setting by setting: (dose: 0.8 mg/kg/injection, schedule: Q01DX009 (ip), vehicle: other) 119 % of control; (dose: 1.0 mg/kg/injection, schedule: Q01DX001 (ip), vehicle: other) 106 % of control; (dose: 1.0 mg/kg/injection, schedule: Q01DX009 (ip), vehicle: other) 122 % of control; (dose: 1.0 mg/kg/injection, schedule: Q01DX015 (ip), vehicle: saline) 121 % of control; (dose: 1.0 mg/kg/injection, schedule: Q04DX003 (ip), vehicle: other) 120 % of control; (dose: 1.0 mg/kg/injection, schedule: Q08DX002 (ip), vehicle: other) 109 % of control. For the same compound, the T/C runs as follows: (dose: 1.5 mg/kg/injection, schedule: Q01DX001 (ip), vehicle: saline) 114 % of control; (dose: 2.0 mg/kg/injection, schedule: Q01DX001 (ip), vehicle: other) 111 % of control; (dose: 2.0 mg/kg/injection, schedule: Q01DX001 (ip), vehicle: saline) 122 % of control; (dose: 2.0 mg/kg/injection, schedule: Q01DX009 (ip), vehicle: other) 96 % of control; (dose: 2.0 mg/kg/injection, schedule: Q04DX003 (ip), vehicle: other) 120 % of control; (dose: 2.0 mg/kg/injection, schedule: Q08DX002 (ip), vehicle: other) 111 % of control. Further, the T/C is 112 % of control (dose: 4.0 mg/kg/injection, schedule: Q01DX001 (ip), vehicle: saline); 117 % of control (dose: 4.0 mg/kg/injection, schedule: Q04DX003 (ip), vehicle: other); 111 % of control (dose: 5.0 mg/kg/injection, schedule: Q01DX001 (ip), vehicle: other); 117 % of control (dose: 5.0 mg/kg/injection, schedule: Q03HX008 (ip), vehicle: other); 150 % of control (dose: 5.0 mg/kg/injection, schedule: Q03HX024 (ip), vehicle: other); 121 % of control (dose: 5.0 mg/kg/injection, schedule: Q08DX002 (ip), vehicle: other). For the same compound, the T/C (dose: 10.0 mg/kg/injection, schedule: Q01DX001 (ip), vehicle: other) was 122 % of control; the T/C (dose: 10.0 mg/kg/injection, schedule: Q03HX008 (ip), vehicle: other) is 118 % of control; the T/C (dose: 10.0 mg/kg/injection, schedule: Q03HX024 (ip), vehicle: other) was 187 % of control; the T/C (dose: 16.0 mg/kg/injection, schedule: Q01DX001 (ip), vehicle: saline) was 117 % of control; the T/C (dose: 20.0 mg/kg/injection, schedule: Q03HX008 (ip), vehicle: other) is 110 % of control; the T/C (dose: 20.0 mg/kg/injection, schedule: Q03HX024 (ip), vehicle: other) is 172 % of control. Also, the T/C runs as follows: (dose: 32.0 mg/kg/injection, schedule: Q01DX001 (ip), vehicle: saline) 118 % of control; (dose: 40.0 mg/kg/injection, schedule: Q03HX008 (ip), vehicle: other) 121 % of control; (dose: 40.0 mg/kg/injection, schedule: Q03HX016 (ip), vehicle: other) 150 % of control; (dose: 40.0 mg/kg/injection, schedule: Q03HX024 (ip), vehicle: other) 112 % of control.

`CCN(CCO)CC1C(c2ccccc2)C1c1ccccc1` (stereo not given): the T/C runs as follows: (dose: 12.5 mg/kg/injection, schedule: Q04DX002 (ip), vehicle: Klucel (hydroxypropylcellulose) (HPC)) 93 % of control; (dose: 25.0 mg/kg/injection, schedule: Q04DX002 (ip), vehicle: Klucel (hydroxypropylcellulose) (HPC)) 90 % of control; (dose: 50.0 mg/kg/injection, schedule: Q04DX002 (ip), vehicle: Klucel (hydroxypropylcellulose) (HPC)) 90 % of control.

With `Cc1cc2oc(=O)c3c(c2c(O)c1CN1CCCCC1)CCCC3`, the T/C is 98 % of control under setting [4], 98 % of control under setting [5] and 96 % of control under setting [6].

`CCOC(=O)/C=C/C(=O)O.[Zn+2]`: the T/C runs as follows: (dose: 12.5 mg/kg/injection, schedule: Q04DX003 (ip), vehicle: saline) 96 % of control and 91 % of control; (dose: 50.0 mg/kg/injection, schedule: Q04DX003 (ip), vehicle: saline) 96 % of control.

On to `COC1OCC(NC(=O)C(F)(F)F)C(OC(C)=O)C1OC(C)=O` (stereo not given), for which the T/C is 94 % of control (dose: 50.0 mg/kg/injection, schedule: Q01DX001 (ip), vehicle: carboxymethylcellulose (CMC)); 100 % of control under setting [4]; 105 % of control under setting [5]; 100 % of control under setting [6].

The values are drawn from PubChem BioAssay AID248 (DTP/NCI, 2004).
